In patent publication US4204069A, “Reductive alkylation” (Merck & Co., Inc., priority 1978, dated 1980):

How the values were obtained:
β-2 adrenergic receptors = biological target: T1, β-2 adrenergic receptors (Cavia porcellus, UniProt Q8K4Z4); assay: Guinea pig tracheal strips, tracheal muscle relaxation, β-2 agonist activity (bronchodilator activity); assay type: cell-based
T1 construct: conventionally isolated tissue preparations (guinea pig atrial and tracheal strips); from tissue; host or cells: guinea pig tracheal strips
Description: (§1) The pharmaceutical activity of the present compounds was determined in vitro using conventionally isolated tissue preparations (guinea pig atrial and tracheal strips). […] Both chronotropic (rate) and inotropic (force) responses were thereby assessed. […] The observed effect on tracheal muscle relaxation is equated with and considered to be an indication of bronchodilator activity. The β-1 and β-2 adrenergic receptor designations are those of Lands et al., Nature, 214, page 597 (1967).

β-1 adrenergic receptors [1] = biological target: T2, β-1 adrenergic receptors (Cavia porcellus, UniProt H0W3H1); assay: Guinea pig atrial strips, atrial force (inotropic response), β-1 agonist activity; assay type: cell-based; conditions: Atrial force (β-1)
T2 construct: conventionally isolated tissue preparations (guinea pig atrial and tracheal strips); from tissue; host or cells: guinea pig atrial strips
Description: as §1

β-1 adrenergic receptors [2] = biological target: T2, β-1 adrenergic receptors; assay: Guinea pig atrial strips, atrial rate (chronotropic response), β-1 agonist activity; assay type: cell-based
Description: as §1

[3] = Blood pressure of a rat after intravenous injection; assay type: in vivo; conditions: injected intravenously

T1 sequence (Q8K4Z4 whole entry): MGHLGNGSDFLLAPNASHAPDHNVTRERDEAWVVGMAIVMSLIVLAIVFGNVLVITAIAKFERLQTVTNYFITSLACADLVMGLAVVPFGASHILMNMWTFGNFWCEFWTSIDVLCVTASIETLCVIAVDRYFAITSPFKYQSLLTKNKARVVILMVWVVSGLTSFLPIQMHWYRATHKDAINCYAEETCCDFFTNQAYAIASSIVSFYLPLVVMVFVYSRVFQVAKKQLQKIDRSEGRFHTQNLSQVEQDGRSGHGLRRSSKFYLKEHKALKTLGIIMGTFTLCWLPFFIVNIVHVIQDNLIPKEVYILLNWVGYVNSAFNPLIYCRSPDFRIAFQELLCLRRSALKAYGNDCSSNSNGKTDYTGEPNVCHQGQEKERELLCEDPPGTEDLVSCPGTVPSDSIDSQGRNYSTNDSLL
T2 sequence (H0W3H1 1-470): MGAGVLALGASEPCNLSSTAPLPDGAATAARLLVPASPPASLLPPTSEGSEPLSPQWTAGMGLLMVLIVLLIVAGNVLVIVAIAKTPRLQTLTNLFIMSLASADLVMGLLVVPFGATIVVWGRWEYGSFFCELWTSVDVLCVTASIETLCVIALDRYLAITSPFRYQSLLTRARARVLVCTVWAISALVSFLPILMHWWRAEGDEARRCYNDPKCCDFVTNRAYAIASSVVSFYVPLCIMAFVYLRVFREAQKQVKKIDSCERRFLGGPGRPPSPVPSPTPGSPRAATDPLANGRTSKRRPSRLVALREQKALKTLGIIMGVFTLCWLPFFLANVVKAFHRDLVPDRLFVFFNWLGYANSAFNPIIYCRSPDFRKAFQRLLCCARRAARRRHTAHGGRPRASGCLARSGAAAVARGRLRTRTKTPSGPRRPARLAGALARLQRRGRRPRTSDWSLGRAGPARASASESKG

relative activity (β-2 adrenergic receptors; Tracheal relaxation (β-2), [ED50 (R,S-ISO)/ED50 (R,S-BENZISO)] × 100): 4.79 | Emax (β-2 adrenergic receptors; Tracheal relaxation (β-2), maximum response relative to R,S-ISO × 100, mean ± S.E.M.): 58 ± 7% | EC50 (β-2 adrenergic receptors; Tracheal relaxation (β-2), mean ± S.E.M., n=4, administered as the dihydrochloride, read-out: pD2 (negative logarithm of ED50) (converted)): 1.66 µM | bronchodilator activity (β-2) (β-2 adrenergic receptors; in words, from Table I): good bronchodilator activity | Ratio, β-2/β-1 (β-2 adrenergic receptors; relative activity (tracheal relaxation)/relative activity (atrial rate)): 13.5 | relative activity (β-1 adrenergic receptors [1]; [ED50 (R,S-ISO)/ED50 (R,S-BENZISO)] × 100): 0.355 | Emax (β-1 adrenergic receptors [1]; maximum response relative to R,S-ISO × 100, mean ± S.E.M.): 33 ± 12% | EC50 (β-1 adrenergic receptors [1]; mean ± S.E.M., n=3, administered as the dihydrochloride, read-out: pD2 (negative logarithm of ED50) (converted)): 3.8 µM | relative activity (β-1 adrenergic receptors [2]; Atrial rate (β-1), [ED50 (R,S-ISO)/ED50 (R,S-BENZISO)] × 100): 0.355 | Emax (β-1 adrenergic receptors [2]; Atrial rate (β-1), maximum response relative to R,S-ISO × 100, mean ± S.E.M.): 50 ± 9% | EC50 (β-1 adrenergic receptors [2]; Atrial rate (β-1), mean ± S.E.M., n=5, administered as the dihydrochloride, read-out: pD2 (negative logarithm of ED50) (converted)): 6.17 µM | cardiac stimulation (β-1 force and rate) (β-1 adrenergic receptors [2]; in words, from Table I): cardiac stimulant
SMILES: CC(C)NCC(O)c1ccc2nc[nH]c2c1 (racemic) [R, S-BENZISO, R,S-1-(5-benzimidazolyl)-2-isopropylaminoethanol]
bronchodilator selectivity versus isoproterenol (β-2 adrenergic receptors; in words, from the β-2/β-1 ratio): more bronchodilator selective than is isoproterenol | effect on blood pressure [3]: decrease blood pressure
